Patent US6156700A, “3-(1,2-Benzisothiazol- and isoxazol-5-yl)-2,4(1H,3H)-pyrimidinedione or thione and 3-(1,2-benzisothiazol- and isoxazol-5-yl)-4(3H)-pyrimidinone or thione herbicidal agents” (American Cyanmid Company, priority 1998, dated 2000)

How the values were obtained:
[1] = system: Velvetleaf, Abutilon theophrasti; assay: Postemergence herbicidal evaluation, ABUTH; type: in vivo, Medic.; conditions: 0.0630 kg/ha
Protocol: (§1) In the tests, seedling plants are grown in jiffy flats for about two weeks. The test compounds are dispersed in 50/50 acetone/water mixtures containing 0.5% TWEEN®20, a polyoxyethylene sorbitan monolaurate surfactant of Atlas Chemical Industries, in sufficient quantities to provide the equivalent of about 0.0157 kg to 0.500 kg per hectare of active compound when applied to the plants through a spray nozzle operating at 40 psi for a predetermined time. After spraying, the plants are placed on greenhouse benches and are cared for in accordance with conventional greenhouse procedures. From four to five weeks after treatment, the seedling plants are examined and rated according to the rating system set forth below. Where more than one test is involved for a given compound, the data are averaged.
(§2) Results of herbicide evaluation are expressed on a rating scale (0-9). The scale is based upon a visual observation of plant stand, vigor, malformation, size, chlorosis and overall plant appearance as compared with a control.

[2] = system: Ragweed, Common, Ambrosia artemisifolia; assay: Postemergence herbicidal evaluation, AMBEL; type: in vivo, L.; conditions: 0.0630 kg/ha
Protocol: as §1, §2

[3] = system: Sicklepod, Cassia obtusifolia; assay: Postemergence herbicidal evaluation, CASOB; type: in vivo, L.; conditions: 0.0630 kg/ha
Protocol: as §1, §2

[4] = system: Lambsquarters, Common, Chenopodium album; assay: Postemergence herbicidal evaluation, CHEAL; type: in vivo, L.; conditions: 0.0630 kg/ha
Protocol: as §1, §2

Galium, Galium aparine = assay: Postemergence herbicidal evaluation, GALAP; type: in vivo; conditions: 0.0630 kg/ha
Protocol: as §1, §2

[5] = system: Morningglory, Ivyleaf, Ipomoea hederacea; assay: Postemergence herbicidal evaluation, IPOHE; type: in vivo, (L.) Jacq.; conditions: 0.0630 kg/ha
Protocol: as §1, §2

[6] = system: Barnyardgrass, Echinochloa crus-galli; assay: Postemergence herbicidal evaluation, ECHCG; type: in vivo, (L.) Beau; conditions: 0.0630 kg/ha
Protocol: as §1, §2

[7] = system: Foxtail, Green, Setaria viridis; assay: Postemergence herbicidal evaluation, SETVI; type: in vivo, (L.) Beau; conditions: 0.0630 kg/ha
Protocol: as §1, §2

[8] = system: Soybean, Williams, Glycine max; assay: Postemergence herbicidal evaluation, GLXMAW; type: in vivo, (L.) Merr. cv Williams; conditions: 0.0630 kg/ha
Protocol: as §1, §2

[9] = system: Rice, Tebonnet, Oryza sativa; assay: Postemergence herbicidal evaluation, ORYSAT; type: in vivo, (L.) Tebonnet; conditions: 0.0630 kg/ha
Protocol: as §1, §2

[10] = system: Wheat, Winter, cv Riband, Triticum aestivum; assay: Postemergence herbicidal evaluation, TRZAWR; type: in vivo; conditions: 0.0630 kg/ha
Protocol: as §1, §2

Corn, Field, Zea mays = assay: Postemergence herbicidal evaluation, ZEAMX; type: in vivo, L.; conditions: 0.0630 kg/ha
Protocol: as §1, §2

[11] = system: ECHORC Watergrass (Calif.); assay: Postemergence weed control, flooded paddy (Table IV); type: in vivo, Echinochloa oryzoides; parameters: scale not given here
Text: (§3) Plastic containers containing weeds which are 3 to 5 cm tall and rice seedlings at the 1.5 to 2.5 leaf stage are flooded with water. The water is maintained at 1.5 to 3 cm above the soil surface for the duration of the experiment. Test compounds are applied as aqueous/acetone mixtures 50/50 v/v directly into the flood water to provide the equivalent of about 0.0313 to 0.500 kg/ha of active ingredient. The treated containers are placed on greenhouse benches and cared for in accordance with conventional greenhouse procedures. Three to four weeks after treatment, the test is terminated and each container is examined and herbicidal effect rated according to the rating system provided in Example 185. The compounds evaluated are reported by compound number given in Example 185.

CYPIR Rice Flatsedge = assay: as above; type: in vivo, Cyperus iria; parameters: scale not given here
Text: as §3

CYPSE Flatsedge = assay: as above; type: in vivo, Cyperus serotinus; parameters: scale not given here
Text: as §3

MOOVA Monochoria = assay: as above; type: in vivo, Monochoria vaginalis; parameters: scale not given here
Text: as §3

[12] = system: SAGPY Arrowhead (Pygmaea); assay: as above; type: in vivo, Sagittaria pygmaea; parameters: scale not given here
Text: as §3

ORYSAT Rice, Tebonnet = assay: Rice tolerance, flooded paddy (Table IV); type: in vivo, Oryza sativa; parameters: scale not given here; conditions: crop tolerance
Text: as §3

SMILES | herbicide rating (0-9) [1] | herbicide rating (0-9) [2] | herbicide rating (0-9) [3] | herbicide rating (0-9) [4] | herbicide rating (0-9) (Galium, Galium aparine) | herbicide rating (0-9) [5] | herbicide rating (0-9) [6] | herbicide rating (0-9) [7] | herbicide rating (0-9) [8] | herbicide rating (0-9) [9] | herbicide rating (0-9) [10] | herbicide rating (0-9) (Corn, Field, Zea mays) | herbicidal effect rating ([11]; 0.1250 kg/ha) | herbicidal effect rating ([11]; 0.2500 kg/ha) | herbicidal effect rating (CYPIR Rice Flatsedge; 0.1250 kg/ha) | herbicidal effect rating (CYPIR Rice Flatsedge; 0.2500 kg/ha) | herbicidal effect rating (CYPSE Flatsedge; 0.1250 kg/ha) | herbicidal effect rating (CYPSE Flatsedge; 0.2500 kg/ha) | herbicidal effect rating (MOOVA Monochoria; 0.1250 kg/ha) | herbicidal effect rating (MOOVA Monochoria; 0.2500 kg/ha) | other results
Cc1ccc(OCC(=O)OC2CCCC2)c(-c2nsc3ccc(-n4c(=O)cc(C(F)(F)F)n(C)c4=O)cc23)c1 [Compound 84, Cyclopentyl {{2-{5-[3,6-dihydro-3-methyl-2,6-dioxo-4-(trifluoromethyl)-1(2H)-pyrimidinyl)-1,2-benzisothiazol-3-yl}-p-tolyl}oxy}acetate] | 9.0 | 9.0 | 4.0 | 9.0 | 9.0 | 9.0 | 9.0 | 9.0 | 8.0 | 8.0 | 8.0 | 7.5 | – | – | – | – | – | – | – | – | –
Cc1ccc(OCC(=O)OCC#Cc2ccccc2)c(-c2nsc3ccc(-n4c(=O)cc(C(F)(F)F)n(C)c4=O)cc23)c1 [Compound 73] | 9.0 | 9.0 | 9.0 | 9.0 | 9.0 | 9.0 | 9.0 | 9.0 | 9.0 | 5.5 | 4.5 | 6.0 | – | – | – | – | – | – | – | – | –
COc1cc(C)c(C)c(C)c1-c1nsc2ccc(-n3c(=O)cc(C(F)(F)F)n(C)c3=O)cc12 [Compound 34, 3-[3-(6-Methoxy-2,3,4-trimethylphenyl)-1,2-benzisothiazol-5-yl]-1-methyl-6-(trifluoromethyl)-2,4(1H,3H)-pyrimidinedione] | 0.0 | 1.0 | 0.0 | 4.0 | 0.0 | 0.0 | 1.0 | 7.0 | 3.0 | 0.0 | 0.0 | 4.0 | – | – | – | – | – | – | – | – | –
Cc1ccc(OCC(=O)OCCCl)c(-c2nsc3ccc(-n4c(=O)cc(C(F)(F)F)n(C)c4=O)cc23)c1 [Compound 71, 2-Chloroethyl {{2-{5-[3,6-dihydro-3-methyl-2,6-dioxo-4-(trifluoromethyl)-1(2H)-pyrimidinyl]-1,2-benzisothiazol-3-yl}-p-tolyl}oxy}acetate] | 9.0 | 9.0 | 9.0 | 9.0 | 9.0 | 9.0 | 9.0 | 9.0 | 9.0 | 8.0 | 9.0 | 8.5 | – | – | – | – | – | – | – | – | –
C=CCOc1ccc(C)cc1-c1nsc2ccc(-n3c(=O)cc(C(F)(F)F)n(C)c3=O)cc12 [Compound 65, 3-{3-[6-(Allyloxy)-m-tolyl)-1,2-benzisothiazol-5-yl}-1-methyl-6-(trifluoromethyl)-2,4(1H,3H)-pyrimidinedione] | 9.0 | 9.0 | 9.0 | 9.0 | 4.0 | 9.0 | 1.0 | 9.0 | 5.5 | 1.5 | 3.5 | 5.5 | – | – | – | – | – | – | – | – | –
Cc1ccc(OCC(=O)OC(C)C(C)(C)C)c(-c2nsc3ccc(-n4c(=O)cc(C(F)(F)F)n(C)c4=O)cc23)c1 (stereo not drawn) [Compound 85, 1,2,2-Trimethylpropyl {{2-{5-[3,6-dihydro-3-methyl-2,6-dioxo-4-(trifluoromethyl)-1(2H)-pyrimidinyl]-1,2-benzisothiazol-3-yl}-p-tolyl}oxy}acetate] | 5.0 | 2.0 | 2.0 | 5.0 | 5.0 | 9.0 | 7.0 | 8.0 | 7.0 | 5.0 | 5.5 | 6.5 | – | – | – | – | – | – | – | – | –
CC(=O)OCc1nsc2ccc(-n3c(=O)cc(C(F)(F)F)n(C)c3=O)cc12 [Compound 32, 3-[3-(Hydroxymethyl)-1,2-benzisothiazol-5-yl]-1-methyl-6-(trifluoromethyl)-2,4(1H,3H)-pyrimidinedione,acetate ester] | 9.0 | 9.0 | 4.0 | 9.0 | 7.0 | 9.0 | 2.0 | 5.0 | 5.5 | 1.0 | 2.0 | 5.5 | – | – | – | – | – | – | – | – | –
CCC(C#N)(CC)c1nsc2ccc(-n3c(=O)cc(C(F)(F)F)n(C)c3=O)cc12 [Compound 445, 1,2-Benzisothiazole-3-acetonitrile, 5-[3,6-dihydro-3-methyl-2,6-dioxo-4-(trifluoromethyl)-1(2H)-pyrimidinyl]-alpha,alpha-diethyl-] | – | – | – | – | – | – | – | – | – | – | – | – | 9.0 | 9.0 | 9.0 | 9.0 | 4.0 | 4.0 | 2.0 | 9.0 | herbicidal effect rating ([12]; 0.1250 kg/ha): 4.0; herbicidal effect rating ([12]; 0.2500 kg/ha): 9.0; herbicidal effect rating (ORYSAT Rice, Tebonnet; 0.1250 kg/ha): 7.0; herbicidal effect rating (ORYSAT Rice, Tebonnet; 0.2500 kg/ha): 7.0
CCOc1cccc(-c2nsc3ccc(-n4c(=O)cc(C(F)(F)F)n(C)c4=O)cc23)c1 [Compound 327, 2,4(1H,3H)-Pyrimidinedione, 3-[3-(m-ethoxyphenyl)-1,2-benzisothiazol-5-yl]-1-methyl-6-(trifluoromethyl)-] | – | – | – | – | – | – | – | – | – | – | – | – | 9.0 | 9.0 | 9.0 | 9.0 | 0.0 | 2.0 | 9.0 | 9.0 | herbicidal effect rating ([12]; 0.1250 kg/ha): 4.0; herbicidal effect rating ([12]; 0.2500 kg/ha): 4.0; herbicidal effect rating (ORYSAT Rice, Tebonnet; 0.1250 kg/ha): 5.0; herbicidal effect rating (ORYSAT Rice, Tebonnet; 0.2500 kg/ha): 4.0
COc1c(-c2nsc3ccc(-n4c(=O)cc(C(F)(F)F)n(C)c4=O)cc23)ccc(C)c1C [Compound 267, 2,4(1H,3H)-Pyrimidinedione,3-[3-(2-methoxy-3,4-xylyl)-1,2-benzisothiazol-5-yl]-1-methyl-6-(trifluoromethyl)-] | – | – | – | – | – | – | – | – | – | – | – | – | 9.0 | 9.0 | 9.0 | 9.0 | 0.0 | 0.0 | 9.0 | 9.0 | herbicidal effect rating ([12]; 0.1250 kg/ha): 0.0; herbicidal effect rating ([12]; 0.2500 kg/ha): 0.0; herbicidal effect rating (ORYSAT Rice, Tebonnet; 0.1250 kg/ha): 6.0; herbicidal effect rating (ORYSAT Rice, Tebonnet; 0.2500 kg/ha): 7.0
COc1cc(C)c(I)cc1-c1nsc2ccc(-n3c(=O)cc(C(F)(F)F)n(C)c3=O)cc12 [Compound 429, 2,4(1H,3H)-Pyrimidinedione,3-[3-(5-iodo-2-methoxy-p-tolyl)-1,2-benzisothiazol-5-yl]-1-methyl-6-(trifluoromethyl)-] | – | – | – | – | – | – | – | – | – | – | – | – | 6.0 | 9.0 | 7.0 | 9.0 | 0.0 | 0.0 | 7.0 | 7.0 | herbicidal effect rating ([12]; 0.1250 kg/ha): 0.0; herbicidal effect rating ([12]; 0.2500 kg/ha): 0.0; herbicidal effect rating (ORYSAT Rice, Tebonnet; 0.1250 kg/ha): 2.0; herbicidal effect rating (ORYSAT Rice, Tebonnet; 0.2500 kg/ha): 2.0
